Laboratory results as given in patent publication US20090081636A1, “Pharmaceutical compositions for and methods of inhibiting HCV replication” (priority 2005, published 2009).
Entries after “also recorded” stand apart in the source; their conditions may differ.

Assays:
NS3 protease domain = NS3 protease domain (Hepatitis C virus genotype 1b, UniProt Q9WMX2); test: Photo-affinity labeling binding assay, NS3 protease domain; design: species or system HCV; conditions: 3.3 μM protein
Description: (§1) To determine whether acylthiourea compounds bind to NS4A, a photo-affinity labeling is carried out, in which an [^3H] labeled photo-reactive azidoacylthiourea, 1-(5-Azido-benzofuran-2-carbonyl)-3-(4-pentyloxy-3-trifluoromethyl-phenyl)-thiourea, is mixed with synthetic NS4A at various molar ratios. The mixture is incubated at 31° C. for one hour. Samples are then illuminated by a UV lamp (254 nm wavelength) at room temperature for 7 minutes. After denaturing with equal volume of Laemmli buffer containing 5% mercaptoethanol at 99° C. for 5 minutes, samples are separated on a 10-20% SDS-PAGE. After electrophoresis, the gel is fixed with 30% methanol-10% acetic acid overnight. Then the gel is treated with 3H enhancer solution (PerkinElmer) at room temperature for one hour, and subsequently with water for 30 minutes, and dried under vacuum.
(§2) One band corresponds to NS4A monomer, which is also detectable with Coomassie blue staining (FIG. 3). […] Without being bound by any particular theory, it is believed that this band may be composed largely of polymer form or aggregates of NS4A. At the same time, full-length NS3 and NS3 protease domain is included in this binding assay.

synthetic NS4A [1] = target: T1, synthetic NS4A (Hepatitis C virus genotype 1b, UniProt Q9WMX2); test: Photo-affinity labeling of synthetic NS4A; type: binding, HCV; conditions: [3H] labeled compound, UV 254 nm photolysis, SDS-PAGE
T1 construct: The full length of NS4A (54 amino acids) is synthesized; made in house
Description: Experiments are undertaken to investigate the affinity and binding specificity of acylthiourea compounds to NS4A. The full length of NS4A (54 amino acids) is synthesized, and characterized with mass spectral analysis and HPLC profiling. An NS4A sample is then dissolved in 100% dimethylsulphoxide (DMSO) at a concentration of 2 μg/μl, and subjected to a 10-20% SDS-PAGE with a reducing reagent. A 6 kDa protein band, consistent with the size of NS4A, is detected in the gel following a Coomassie blue staining. The NS4A identity of this band is further confirmed by a Western blot with monoclonal anti-NS4A antibody.
as §1, with “Then the gel is treated with 3H enhancer solution (PerkinElmer) at room temperature for one hour, and subsequently with water for 30 minutes, and dried under vacuum.” left out

full-length NS3 = full-length NS3 (Hepatitis C virus genotype 1b, UniProt Q9WMX2); test: Photo-affinity labeling binding assay, full-length NS3; design: species or system HCV; conditions: 3.3 μM protein
Description: as §1, §2

synthetic NS4A [2] = target: T1, synthetic NS4A; test: Competition assay for NS4A binding against [3H] labeled azidoacylthiourea; design: species or system HCV
Description: as §1
To study the binding specificity of [^3H] labeled 1-(5-Azido-benzofuran-2-carbonyl)-3-(4-pentyloxy-3-trifluoromethyl-phenyl)-thiourea to synthetic NS4A, several structurally related compounds are used in the following competition assays. Non-labeled 1-(5-Azido-benzofuran-2-carbonyl)-3-(4-pentyloxy-3-trifluoromethyl-phenyl)-thiourea shares the same structure with [^3H] labeled 1-(5-Azido-benzofuran-2-carbonyl)-3-(4-pentyloxy-3-trifluoromethyl-phenyl)-thiourea. 1-(5-Azido-benzofuran-2-carbonyl)-3-(4-pentyloxy-3-trifluoromethyl-phenyl)-urea differs in structure from 1-(5-Azido-benzofuran-2-carbonyl)-3-(4-pentyloxy-3-trifluoromethyl-phenyl)-thiourea in that 1-(5-Azido-benzofuran-2-carbonyl)-3-(4-pentyloxy-3-trifluoromethyl-phenyl)-urea has a carbonyl group where 1-(5-Azido-benzofuran-2-carbonyl)-3-(4-pentyloxy-3-trifluoromethyl-phenyl)-thiourea has a thiocarbonyl group. […]

HCV replicon cells = test: HCV replicon assay; type: cell-based
Description: Cells expressing the HCV replicon are seeded onto the internal wells of 96-well plates at a density of 7,000 cells per well. One day later, different dilutions of the test compounds are added to corresponding wells and the plates are incubated in a CO2 incubator for 72 hours. After treatment, the cells are lysed with 70 μl RLN buffer per well (50 mM Tris-HCl [pH8.0], 140 mM NaCl, 1.5 mM MgCl2, 0.5% Nonidet P-40, 1,000 units/mL RNAsin and 1 mM […]). The total lysate is transferred to a new U bottom 96-well plate and nuclei and cell debris are pelleted with a brief spin (300×g for 3 minutes). 50 μl of supernatant is removed from the well and loaded directly onto manifold wells equipped with Nylon membranes. HCV RNA is hybridized at 58° C. overnight using a labeled HCV RNA probe containing a negative strand sequence complement to the NS5B region. Hybridization buffer is composed of 50% formamide, 5×SSPE, 1% SDS, 5×Denhart's solution, and sheared denatured salmon sperm DNA. Following hybridization, the membrane is washed with washing buffer (0.1×SSC, 0.1% SDS) at room temperature for two hours, then at 65° C. for 30 minutes. The radioactivity in each well is counted on a Microbeta counter and EC50 is calculated based on cpm.
Alternatively, HCV replicon cells are trypsinized for 5-10 minutes in a CO2 incubator. Then, cells are placed in a 15 mL tube, and are spun at 1000 rpm for 4 minutes and trypsin solution is removed. Cell pellets are washed once with PBS and spun 4 minutes at 1000 rpm.
Trypsinization and wash steps, supra, are conducted efficiently to minimize cell death. PBS is removed and cells are resuspended in 4 mL fresh PBS and cells are seeded at a dilution of 5000 cells per well to 96 well plates. Test compounds are diluted in 96 well U bottom plates with DMEM (high glucose) (BRL, Catalog #21063) supplemented with 10% FBS, L-glutamine, and non-essential amino acid. 100 uL of test compound is loaded into each well. […]
100 uL of development solution (TMB one-step substrate system) is added and plates are developed in the dark for 10 to 30 minutes. […] OD450 is measured.

T1 sequence (Q9WMX2 1658-1711): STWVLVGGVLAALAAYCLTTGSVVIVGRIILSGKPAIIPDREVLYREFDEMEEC
NS3 protease domain, sequence (Q9WMX2 1027-1208): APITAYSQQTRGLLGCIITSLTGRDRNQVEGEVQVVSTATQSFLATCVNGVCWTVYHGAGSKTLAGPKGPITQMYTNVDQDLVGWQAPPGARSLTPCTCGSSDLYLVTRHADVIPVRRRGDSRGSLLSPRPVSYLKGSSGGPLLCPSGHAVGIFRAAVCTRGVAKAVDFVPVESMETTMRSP
full-length NS3, sequence (Q9WMX2 1027-1657): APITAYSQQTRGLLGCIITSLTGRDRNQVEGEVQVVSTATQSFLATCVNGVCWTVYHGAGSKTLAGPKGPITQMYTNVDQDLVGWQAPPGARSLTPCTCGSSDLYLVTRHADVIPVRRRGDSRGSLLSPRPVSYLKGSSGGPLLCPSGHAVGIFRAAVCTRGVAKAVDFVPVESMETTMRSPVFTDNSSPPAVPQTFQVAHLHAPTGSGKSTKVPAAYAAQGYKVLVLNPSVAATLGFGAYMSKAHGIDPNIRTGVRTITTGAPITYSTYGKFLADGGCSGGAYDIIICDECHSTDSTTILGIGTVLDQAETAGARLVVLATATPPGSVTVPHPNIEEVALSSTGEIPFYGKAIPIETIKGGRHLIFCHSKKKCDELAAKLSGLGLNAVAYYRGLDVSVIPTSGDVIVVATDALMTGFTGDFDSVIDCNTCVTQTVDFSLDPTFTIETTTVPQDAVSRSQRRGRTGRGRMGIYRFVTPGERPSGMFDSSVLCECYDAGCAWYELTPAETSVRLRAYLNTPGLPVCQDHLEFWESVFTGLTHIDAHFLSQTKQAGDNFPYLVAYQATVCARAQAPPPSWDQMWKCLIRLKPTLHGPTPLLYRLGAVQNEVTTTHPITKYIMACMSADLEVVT

Row | Compound | binding to NS3 protease domain (NS3 protease domain) | binding to synthetic NS4A (synthetic NS4A [1]) | binding to full-length NS3 (full-length NS3) | competition with [3H] labeled azidoacylthiourea for NS4A binding (synthetic NS4A [2]) | anti-HCV activity in replicon cells (HCV replicon cells)
1 | CCCCCOc1ccc(NC(=S)NC(=O)c2cc3cc(N=[N+]=[N-])ccc3o2)cc1C(F)(F)F [1-(5-Azido-benzofuran-2-carbonyl)-3-(4-pentyloxy-3-trifluoromethyl-phenyl)-thiourea] | weak binding signals | binds to synthetic NS4A; also recorded: two radioactive bands | weak binding signals |  | 
2 | CCCCCOc1ccc(NC(=O)NC(=O)c2cc3cc(N=[N+]=[N-])ccc3o2)cc1C(F)(F)F [1-(5-Azido-benzofuran-2-carbonyl)-3-(4-pentyloxy-3-trifluoromethyl-phenyl)-urea] |  |  |  | does not compete; also recorded: abolish this competition capacity | does not exhibit any anti-HCV activity
3 | CCCCCOc1ccc(NC(=S)NC(=O)c2cc3ccccc3o2)cc1C(F)(F)F [1-(Benzofuran-2-carbonyl)-3-(4-pentyloxy-3-trifluoromethyl-phenyl)-thiourea] |  |  |  | effectively compete | exhibit anti-HCV activities
4 | CCCCCOc1ccc(NC(=S)NC(=O)c2cccnc2)cc1C(F)(F)F [1-(4-Pentyloxy-3-trifluoromethyl-phenyl)-3-(pyridine-3-carbonyl)-thiourea] |  |  |  | effectively compete | exhibit anti-HCV activities
